Results from PMC6143478, “Lipophilic activated ester prodrug approach for drug delivery to the intestinal lymphatic system” (Journal of Controlled Release, 2018).
Entries after “also recorded” stand apart in the source; their conditions may differ.

How the values were obtained:
human chylomicrons (CM) = test: Ex vivo association with human plasma-derived chylomicrons; type: in vitro ADME; conditions: in words; for association with human chylomicrons (CM): 1.755 μM, 37 °C, 1 h, relative to parent drug
Excerpt: The protocol for preparation of human plasma-derived CM emulsion was approved by the Faculty of Medicine and Health Sciences Research Ethics Committee, Queens Medical Centre, Nottingham University Hospitals (BT12102015 CBS SoP). Healthy male volunteers of 19–40 years old and with body mass index of 18.5–25.0 were enrolled in the study after providing informed consent. The participants were excluded if any medication was used within one week prior to enrolment. On the morning of the study, participants received a high-fat meal (equivalent to a full English breakfast). Between 3 and 4 h following breakfast, 30 mL of blood was collected using heparinised tubes (Vacutainer® Blood Collection Tubes) and centrifuged (800 g, 10 min, 15 °C) to obtain plasma.
CM separation was performed as previously reported with minor modifications. Briefly, KBr (0.57 g) was mixed with 4 mL of plasma to yield density of 1.1 g/mL. PBS with densities of 1.006, 1.019, and 1.063 g/mL were prepared by adding appropriate amounts of KBr. These PBS of different densities were layered on top of the plasma to build density gradient layers in polyallomer ultracentrifuge tubes. The samples were then centrifuged at 268,350 g for 35 min at 15 °C using an ultracentrifuge (SORVALL® TH-641 Rotor, Thermo Fisher Scientific, UK). Following ultracentrifugation, approximately 1 mL of the upper layer containing CM was collected. TG concentration of CM emulsion was assessed using the TG enzymatic kit (Sigma Aldrich, Dorset, UK). TG concentration of the emulsion was adjusted to 100 mg/dL by diluting with PBS of 1.006 g/mL density. The CM emulsion was stored at 4 °C until the association assay (˂24 h).
(§1) The association of the compounds with artificial lipid particle emulsion and human CM was assessed using previously reported methodology with minor modifications. Briefly, 1 mL of artificial lipid particle or CM emulsions (TG concentration 100 mg/dL) was used for the association assay. The emulsion was spiked with stock solutions of tested compounds (in acetonitrile) to give a final concentration of 1.755 μM. The reaction mixtures were incubated at 37 °C for 1 h with magnetic stirring at 300 rpm. Following the incubation, density gradient ultracentrifugation was applied as described above to isolate the artificial lipid particles or CM associated with the tested compounds from the rest of the experimental medium. All experiments were conducted in quintuplicates or above.

[1] = Prodrug conversion assay in postprandial rat lymph; type: in vitro ADME; conditions: CM-rich postprandial rat lymph, ex vivo; relative to rat plasma
Protocol: The prodrugs were tested for their stability and conversion into their corresponding active drug using fasted state simulated intestinal fluid (FaSSIF) with added esterase enzyme activity (20 IU/mL), rat plasma, and postprandial rat lymph. The FaSSIF was prepared as previously described in the literature. The medium was pre-heated to 37 °C prior to the assay for 5 min. The experiment was initiated by spiking stock solutions of prodrugs to give a final concentration of 10 μM of the prodrugs in the medium. When the stability of the artificial emulsion-associated prodrugs was tested in plasma, the association of compounds with artificial emulsion was performed prior to stability experiments and the concentrations of the compounds in the associated emulsion were measured. The emulsion was then spiked to give a concentration of 10 μM of the prodrugs in plasma. The reaction mixtures were incubated at 37 °C and shaken at 200 rpm on a temperature-controlled orbital shaker (Thermo Scientific MaxQ4000, Waltham, MA, USA) for 4 h. Samples were withdrawn at pre-determined time points, and the reaction was terminated by addition of acetonitrile. The samples were then subjected to sample preparation and analysis as described below. […] Half-life of active drug release (t1/2) was calculated by the following equation: t1/2 = −0.693/k. […]

[2] = Prodrug conversion assay in rat plasma; type: in vitro ADME
Protocol: The prodrugs were tested for their stability and conversion into their corresponding active drug using fasted state simulated intestinal fluid (FaSSIF) with added esterase enzyme activity (20 IU/mL), rat plasma, and postprandial rat lymph. The FaSSIF was prepared as previously described in the literature. The medium was pre-heated to 37 °C prior to the assay for 5 min. The experiment was initiated by spiking stock solutions of prodrugs to give a final concentration of 10 μM of the prodrugs in the medium. When the stability of the artificial emulsion-associated prodrugs was tested in plasma, the association of compounds with artificial emulsion was performed prior to stability experiments and the concentrations of the compounds in the associated emulsion were measured. The emulsion was then spiked to give a concentration of 10 μM of the prodrugs in plasma. The reaction mixtures were incubated at 37 °C and shaken at 200 rpm on a temperature-controlled orbital shaker (Thermo Scientific MaxQ4000, Waltham, MA, USA) for 4 h. Samples were withdrawn at pre-determined time points, and the reaction was terminated by addition of acetonitrile. The samples were then subjected to sample preparation and analysis as described below. The natural log percentage of the prodrug concentration was plotted against incubation time, and the slope (k) was obtained from the plot. Half-life of active drug release (t1/2) was calculated by the following equation: t1/2 = −0.693/k. All experiments were conducted in triplicate.

[3] = In vitro association with artificial lipid particle emulsion prepared from Intralipid; type: in vitro ADME; conditions: TG 100 mg/dL, 1.755 μM, 37 °C, 1 h, in words, relative to parent drug
Protocol: To prepare the artificial lipid particle emulsion, Intralipid® 20% (Sigma, Gillingham, UK) was diluted using phosphate buffered saline (PBS) to yield 100 mg/dL of triglyceride (TG) concentration. A TG enzymatic kit (Sigma Aldrich, Dorset, UK) was used to monitor the TG concentration by following manufacturer's instructions.
as §1

[4] = Biodistribution to mesenteric lymph nodes (MLN) and lymph following oral administration in rats; type: in vivo; conditions: rat
Protocol: The protocols for pharmacokinetic and biodistribution experiments in this study were reviewed and approved by the University of Nottingham Ethical Review Committee in accordance with the Animals [Scientific Procedures] Act 1986. Male Sprague Dawley rats (Charles River Laboratories, UK) weighing 350–380 g were used. The animals were housed in the Bio Support Unit, University of Nottingham. Continuous lymph collection was performed according to a protocol approved by the Institutional Animal Care and Use Committee at Rutgers, The State University of New Jersey. Male Sprague Dawley rats (Envigo, Inc., NJ, USA) weighing 300–350 g were used for the continuous lymph collection. Animals were allowed free access to food and water and were acclimatised for at least 6 days prior to any procedures at both institutions in a controlled-temperature environment with 12 h light/dark cycles.
Formulations were prepared as described in the above pharmacokinetic study and were delivered by an oral gavage. Animals were euthanised at pre-determined time points. Blood was collected from the posterior vena cava and lymph samples were taken from the mesenteric lymph duct. MLNs were dissected and collected as previously described. The MLNs were isolated from surrounding tissue with care not to compromise the integrity of the lymph nodes. The MLNs were homogenised (POLYTRON® PT 10–35 GT, Kinematica AG, Luzern, Switzerland) with 10 mg/mL NaF in water (1,2, w/v) on an ice bath prior to sample preparation for HPLC analysis.
A combination of protein precipitation and liquid-liquid extraction was applied to samples prior to HPLC injection. To 100 μL sample, 300 μL of acetonitrile was added for protein precipitation and then 300 μL of pH modifier was added when necessary (Supplementary Material Table S2). […] The organic layer was separated and evaporated under N2 gas. Reconstitution solvent (100 μL) was used as detailed in Supplementary Material Table S2 and 40 μL was injected into the HPLC-UV system. […] Therefore, storage and preparation of all samples were performed within the time frame and conditions of confirmed stability.
The HPLC-UV system consisting of a separation module (Waters Alliance 2695) equipped with a UV detector (Waters 996) was used for analysis. Samples in the autosampler were maintained at 4 °C and the column at 40 °C. The stationary and mobile phases were used as specified in Supplementary Material Table S2. BEX and its prodrugs were detected at 259 nm and RA and its prodrugs at 357 nm.

[5] = system: esterase from porcine liver; test: Prodrug conversion assay in FaSSIF with added esterase activity; type: in vitro ADME; conditions: esterase 20 IU/mL, 10 μM, 37 °C, 4 h; in words
Protocol: BEX was purchased from LC Laboratories (Woburn, MA, USA). RA (all-trans), Intralipid®, esterase from porcine liver, sodium taurocholate (NaTc), NaCl, NaF and lecithin were obtained from Sigma (Gillingham, UK). Rat plasma was purchased from Sera Laboratories (West Sussex, UK). Thiazolyl blue tetrazolium bromide (MTT), sesame oil, polyethylene glycol 400 (PEG400) and all solvents (HPLC grade or higher) were purchased from Fisher Scientific (Loughborough, UK).
The prodrugs were tested for their stability and conversion into their corresponding active drug using fasted state simulated intestinal fluid (FaSSIF) with added esterase enzyme activity (20 IU/mL), rat plasma, and postprandial rat lymph. The FaSSIF was prepared as previously described in the literature. The medium was pre-heated to 37 °C prior to the assay for 5 min. […] When the stability of the artificial emulsion-associated prodrugs was tested in plasma, the association of compounds with artificial emulsion was performed prior to stability experiments and the concentrations of the compounds in the associated emulsion were measured. […] Samples were withdrawn at pre-determined time points, and the reaction was terminated by addition of acetonitrile. […] Half-life of active drug release (t1/2) was calculated by the following equation: t1/2 = −0.693/k. […]

C=C(c1ccc(C(=O)OC)cc1)c1cc2c(cc1C)C(C)(C)CCC2(C)C [prodrug 1]
association with human chylomicrons (CM) (human chylomicrons (CM)): equally high affinity to CM

C=C(c1ccc(C(=O)OCc2oc(=O)oc2C)cc1)c1cc2c(cc1C)C(C)(C)CCC2(C)C [prodrug 25]
half-life of active drug release in postprandial lymph [1]: prolonged | conversion of emulsion-associated form of prodrug in rat plasma ([2]; prodrug incorporated into Intralipid lipid particles, 10 μM, relative to free form): delayed conversion | half-life at 10 μM ([2]; rat, plasma, in vitro, 37 °C, free form, read-out: half-life of active drug release in rat plasma): 8 min

CC1=C(/C=C/C(C)=C/C=C/C(C)=C/C(=O)OCc2oc(=O)oc2C)C(C)(C)CCC1 [prodrug 27]
association with artificial emulsion [3]: improved association | association with human chylomicrons (CM) (human chylomicrons (CM)): improved association

C=C(c1ccc(C(=O)OC(COC(=O)CCCCCCCCCCCCCCC)COC(=O)CCCCCCCCCCCCCCC)cc1)c1cc2c(cc1C)C(C)(C)CCC2(C)C [prodrug 13]
concentrations of BEX in intestinal lymphatics (MLNs, lymph) relative to plasma ([4]; BEX analyte, dose equivalent to 10 mg/kg BEX, in words): comparable to that in plasma | intact form of prodrug in samples ([4]; plasma, MLN, lymph, any time point): not found in any sample at any time point | conversion to BEX in rat plasma ([2]; in vitro, 10 μM, 37 °C, 4 h, in words): BEX was not released; also recorded: not observed

C=C(c1ccc(C(=O)OCCCCCCCC)cc1)c1cc2c(cc1C)C(C)(C)CCC2(C)C [prodrug 9]
conversion to BEX in FaSSIF with esterase [5]: too slow to be detected

C=C(c1ccc(C(=O)OCCN(C(C)C)C(C)C)cc1)c1cc2c(cc1C)C(C)(C)CCC2(C)C [prodrug 24]
difference in affinity for artificial emulsion versus natural human CM (human chylomicrons (CM)): significant differences

C=C(c1ccc(C(=O)OC(C(C)C)C(C)C)cc1)c1cc2c(cc1C)C(C)(C)CCC2(C)C [prodrug 18]
conversion to BEX in FaSSIF with esterase [5]: too slow to be detected

C=C(c1ccc(C(=O)OCCC)cc1)c1cc2c(cc1C)C(C)(C)CCC2(C)C [prodrug 4]
association with human chylomicrons (CM) (human chylomicrons (CM)): equally high affinity to CM

CCOC(=O)/C=C(C)/C=C/C=C(C)/C=C/C1=C(C)CCCC1(C)C [prodrug 26]
association with artificial emulsion [3]: improved association | association with human chylomicrons (CM) (human chylomicrons (CM)): improved association
